Test results from ChEMBL document CHEMBL1821652, “QSAR models for predicting enzymatic hydrolysis of new chemical entities in 'soft-drug' design” (Bioorg Med Chem, 2009).
Residues, ends and D or L forms follow the SMILES beside them.

test: Half life in human plasma; format: ADME, cell-free

Compared with `COc1ccccc1OC(=O)c1ccccc1Nc1cccc(C)c1C` [MEFENAMIC ACID GUAIACOL ESTER], `CS(=O)(=O)N(COC(=O)c1ccccc1)c1ccc([N+](=O)[O-])cc1Oc1ccccc1` is 470-fold lower in half-life: 914 min for the first, 1.93 min for the second.

Going from `Cc1ncc([N+](=O)[O-])n1CCOC(=O)c1ccccc1C(=O)OCCn1c([N+](=O)[O-])cnc1C` to `Cc1ncc([N+](=O)[O-])n1CCOC(=O)CCCCC(=O)OCCn1c([N+](=O)[O-])cnc1C`, the half-life falls from 743 min to 16.8 min (44-fold).

Compared with `COC(=O)[C@H](Cc1ccc(OC(C)=O)c(OC(C)=O)c1)NC(=O)CCCC[C@@H]1CCSS1`, `O=C(CCCC[C@@H]1CCSS1)NCCc1ccc(O)c(O)c1` is 1.5-fold higher in half-life: 52.8 min for the first, 81 min for the second.

Going from `C[C@H](NC(=O)[C@H](N)CCC(=O)OCc1ccc(F)cc1)C(=O)O` to `C[C@H](NC(=O)[C@H](N)CC(=O)OCc1ccc(F)cc1)C(=O)O`, the half-life rises from 120 min to 260 min (2.2-fold).

Going from `COc1ccc2c(c1)c(CC(=O)NCCOCCOCCO)c(C)n2C(=O)c1ccc(Cl)cc1` to `COc1ccc2cc([C@H](C)C(=O)OCCOCCO)ccc2c1`, the half-life falls from 4440 min to 38.6 min (120-fold).

`CCOC(=O)CN(COC(=O)[C@@H](C)c1ccc2cc(OC)ccc2c1)C(=O)c1ccccc1` and `COc1ccc2cc([C@H](C)C(=O)OCN(C)C(=O)c3ccccc3)ccc2c1` are within 1.5-fold of each other in half-life: 78 min for the first, 72 min for the second.

Going from `CCCC(CCC)C(=O)OCN(CC(=O)OCC)C(=O)c1ccccc1` to `CCOC(=O)CNC(=O)OCOC(=O)c1ccccc1`, the half-life falls from 1320 min to 0.24 min (5500-fold).

`Cc1cn([C@H]2C=C[C@@H](COC(=O)CNNC(=O)c3ccncc3)O2)c(=O)[nH]c1=O` and `Cc1cn([C@H]2C=C[C@@H](COC(=O)CNC(=O)c3ccncn3)O2)c(=O)[nH]c1=O` are the same in half-life: 60 min for the first, 60 min for the second.

Compared with `CCCCCCCCCCOC(=O)[C@H](Cc1ccccc1)NC(=O)CN.Cl`, `CCCCOC(=O)[C@H](Cc1ccccc1)NC(=O)CN.Cl` is 5.3-fold lower in half-life: 61.5 min for the first, 11.5 min for the second.

`C[C@H](NC(=O)[C@H](N)CC(=O)OCc1ccc([N+](=O)[O-])cc1)C(=O)O` and `C[C@H](NC(=O)[C@H](N)CCC(=O)OCc1ccc([N+](=O)[O-])cc1)C(=O)O` are within 1.5-fold of each other in half-life: 7.2 min for the first, 6.8 min for the second.

`CCN(CC)C(=O)COC(=O)[C@@H](C)c1ccc(CC(C)C)cc1` and `CCN(CC)C(=O)COC(=O)[C@H](C)c1ccc(CC(C)C)cc1` are within 1.5-fold of each other in half-life: 1.4 min for the first, 1 min for the second.

Going from `COC(=O)O[C@]1(C(=O)OCCl)CC[C@H]2[C@@H]3CCC4=CC(=O)CC[C@]4(C)[C@H]3[C@@H](O)C[C@@]21C` to `C[C@]12CCC(=O)C=C1CC[C@@H]1[C@@H]2[C@@H](O)C[C@@]2(C)[C@H]1CC[C@]2(O)C(=O)OCCl`, the half-life falls from 960 min to 132 min (7.3-fold).

First: Nc1ccc(S(=O)(=O)N(COC(=O)c2ccccc2)c2ncccn2)cc1
Second: Nc1ccc(S(=O)(=O)N(COC(=O)c2ccccc2)c2cncs2)cc1
The half-life of the first is 12-fold higher: 1.38 min for the first, 0.12 min for the second.

`CC1(C)O[C@@H]2C[C@H]3[C@@H]4C[C@H](F)C5=CC(=O)C=C[C@]5(C)[C@@]4(F)[C@@H](O)C[C@]3(C)[C@]2(S[C@H]2CCOC2=O)O1` and `CCC[C@@H]1O[C@@H]2C[C@H]3[C@@H]4C[C@H](F)C5=CC(=O)C=C[C@]5(C)[C@@]4(F)[C@@H](O)C[C@]3(C)[C@]2(S[C@H]2CCOC2=O)O1` are the same in half-life: 4 min for the first, 4 min for the second.

Compared with `CCCCCCCC(=O)OC[C@H]1O[C@@H](n2cnc3c(NC4CCCC4)ncnc32)[C@H](O)[C@@H]1O`, `CCCCC(=O)OC[C@H]1O[C@@H](n2cnc3c(NC4CCCC4)ncnc32)[C@H](O)[C@@H]1O` is 1.6-fold lower in half-life: 28 min for the first, 18 min for the second.

Going from `COC(=O)[C@H](Cc1ccccc1)NC(=O)CN.Cl` (H-Gly-Phe-OMe) to `C[C@H](NC(=O)[C@H](N)CC(=O)OCc1ccccc1)C(=O)O`, the half-life rises from 10 min to 211 min (21-fold).

Compared with `CC(C)(C)OC(=O)Oc1ccc2c3c1O[C@H]1C(=O)CC[C@@]4(O)[C@@H](C2)N(CC2CC2)CC[C@]314`, `CC(C)(C)C(=O)Oc1ccc2c3c1O[C@H]1C(=O)CC[C@@]4(O)[C@@H](C2)N(CC2CC2)CC[C@]314` is lower in half-life: over 1440 min for the first, 562 min for the second.

First: CCCCCCCCCCCC(=O)Oc1c(-c2ccc(O)c(O)c2)oc2cc(O)cc(O)c2c1=O
Second: CCC(=O)Oc1c(-c2ccc(O)c(O)c2)oc2cc(O)cc(O)c2c1=O
The half-life of the first is 2.3-fold higher: 73.2 min for the first, 31.2 min for the second.

Going from `CCOC(=O)CNC(=O)OCOC(=O)c1ccccc1Nc1cccc(C(F)(F)F)c1` to `CCOC(=O)CNC(=O)OCOC(=O)C(C)(C)Oc1ccc(Cl)cc1`, the half-life falls from 21.8 min to 1.63 min (13-fold).

Compared with `Cc1nccn1CCOC(=O)[C@H](C)c1ccc(-c2ccccc2)c(F)c1`, `Cc1nccn1CCOC(=O)[C@@H](C)c1ccc(-c2ccccc2)c(F)c1` is 9.3-fold higher in half-life: 38 min for the first, 355 min for the second.

`C[C@H](NC(=O)[C@H](N)CCC(=O)OCc1ccccc1)C(=O)O` and `CN(CC(=O)O)C(=O)[C@@H](N)CC(=O)OCc1ccccc1` are within 1.5-fold of each other in half-life: 158 min for the first, 180 min for the second.

`CC(C)OC(=O)Oc1ccc2c3c1O[C@H]1C(=O)CC[C@@]4(O)[C@@H](C2)N(CC2CC2)CC[C@]314` and `CC(C)CC(=O)Oc1ccc2c3c1O[C@H]1C(=O)CC[C@@]4(O)[C@@H](C2)N(CC2CC2)CC[C@]314` are within 1.5-fold of each other in half-life: 39 min for the first, 32.4 min for the second.

Going from `O=C(O[C@H]1C[C@H](n2cc(F)c(=O)[nH]c2=O)O[C@@H]1CO)[C@@H]1CCCN1` to `O=C(OC[C@H]1O[C@@H](n2cc(F)c(=O)[nH]c2=O)C[C@@H]1O)[C@@H]1CCCN1`, the half-life falls from 13.8 min to 5.7 min (2.4-fold).

Going from `CC(C)Cc1ccc([C@@H](C)C(=O)OCC(=O)N(C)C)cc1` to `Cc1nccn1CCOC(=O)[C@@H](C)c1ccc(CC(C)C)cc1`, the half-life rises from 1.5 min to 135 min (90-fold).

`CC(=O)OCOC(=O)N(C)/N=N/c1ccc(Br)cc1` and `CC(=O)OCOC(=O)N(C)/N=N/c1ccc(C)cc1` are within 1.5-fold of each other in half-life: 17 min for the first, 15 min for the second.

Compared with `CCCCN(CCCC)Cc1cccc(C(=O)OCCOCn2cnc3c(=O)[nH]c(N)nc32)c1`, `CCCN(CCC)Cc1ccc(C(=O)OCCOCn2cnc3c(=O)[nH]c(N)nc32)cc1` is 3.9-fold higher in half-life: 2.3 min for the first, 9 min for the second.

`CCCCOC(=O)[C@@H](N)Cc1ccc(O)c(O)c1` and `CCOC(=O)[C@@H](N)Cc1ccc(O)c(O)c1` [ETILEVODOPA] are within 1.5-fold of each other in half-life: 96 min for the first, 100 min for the second.

First: Nc1nc(O)c2ncn(COCCOC(=O)c3ccc(CN4CCOCC4)cc3)c2n1
Second: CN(C)Cc1ccc(C(=O)OCCOCn2cnc3c(=O)[nH]c(N)nc32)cc1
The half-life of the first is 8.9-fold lower: 3.7 min for the first, 33 min for the second.

First: CCOC(=O)CNC(=O)OCN(c1ccc([N+](=O)[O-])cc1Oc1ccccc1)S(C)(=O)=O
Second: CC(C)(C)C(=O)OCN(c1ccc([N+](=O)[O-])cc1Oc1ccccc1)S(C)(=O)=O
The half-life of the first is 9.4-fold higher: 954 min for the first, 102 min for the second.

Going from `CN(CC(=O)O)C(=O)[C@@H](N)CCC(=O)OCCOCn1cnc2c(=O)[nH]c(N)nc21` to `CC(C)[C@H](N)C(=O)OCCOCn1cnc2c(=O)[nH]c(N)nc21` (stereo in doubt; 160) [VALACYCLOVIR], the half-life rises from 72.7 min to 312 min (4.3-fold).

Going from `CCOC(=O)c1ccc(/N=N/N(C)C(=O)OCOC(=O)c2ccccc2)cc1` to `Cc1noc(N(COC(=O)c2ccccc2)S(=O)(=O)c2ccc(N)cc2)c1C`, the half-life falls from 47 min to 5.78 min (8.1-fold).

`NCCCC[C@H](N)C(=O)OC[C@H]1O[C@@H](n2cc(F)c(=O)[nH]c2=O)C[C@@H]1O` and `NCCCC[C@H](N)C(=O)OC[C@H]1O[C@@H](n2cc(F)c(=O)[nH]c2=O)C[C@@H]1OC(=O)[C@@H](N)CCCCN` are within 1.5-fold of each other in half-life: 38.8 min for the first, 29.5 min for the second.

In the case of `CCN(CC)C(=O)COC(=O)[C@@H](C)c1ccc(-c2ccccc2)c(F)c1`, the half-life is reported as 2.6 min.
